Legend:
[1] = tested on: SW620 human metastatic colon cancer cells; assay: MTT assay, SW620 cells; type: cell-based; settings: SW-620, 72 h, read-out: IC50 SW620
[2] = tested on: A549 human lung cancer cells; assay: MTT assay, A549 cells; type: cell-based; settings: A549, 72 h, read-out: IC50 A549
[3] = tested on: SW480 human primary colon cancer cells; assay: MTT assay, SW480 cells; type: cell-based; settings: SW480, 72 h, read-out: IC50 SW480
[4] = Black lipid membrane (BLM) ionic current; settings: at −60 mV, 50/150 mM KCl (cis/trans) gradient
[5] = tested on: PC3 human metastatic prostate cancer cells; assay: MTT assay, PC3 cells; type: cell-based; settings: PC-3, 72 h, read-out: IC50 PC3
[6] = tested on: A549 cells; assay: MitoTracker Red CMXRos flow cytometry (mitochondrial membrane potential), A549; settings: A549, 48 h at IC50 concentration
[7] = tested on: prostate cancer cells; parameters: method as in PMID 21159605; settings: no significant effects on normal prostate epithelial cells; cited from earlier work
[8] = tested on: A549 cells; assay: MitoTracker Green FM flow cytometry (mitochondrial mass), A549; settings: A549, 48 h at IC50 concentration

Structure (SMILES)	IC50 [1]	IC50 [2]	IC50 [3]	ionic current through artificial membrane [4]	IC50 [5]	MTRed CMXRos positive stained cells [6]	growth inhibition of prostate cancer cells [7]	cells positive for MTGreen fluorescence [8]
CCCC[P+](CCCC)(CCCC)Cc1cn([C@H]2C=C[C@]3(O[C@H]([C@@H](CC)C(=O)[C@@H](C)[C@@H](O)[C@H](C)[C@@H]4O[C@@H]([C@@H](CC)C(=O)O)CC[C@@H]4C)[C@@H](C)C[C@H]3C)O[C@@]23CC[C@@](C)([C@H]2CC[C@](O)(CC)[C@H](C)O2)O3)nn1 [1d]	1.8 ± 0.2 µM	3.6 ± 0.5 µM	2.5 ± 0.6 µM	−10 pA	3.6 ± 1.6 µM			
CC[C@@H](C(=O)[C@@H](C)[C@@H](O)[C@H](C)[C@@H]1O[C@@H]([C@@H](CC)C(=O)O)CC[C@@H]1C)[C@H]1O[C@]2(C=C[C@H](NC(=O)CCC[P+](c3ccccc3)(c3ccccc3)c3ccccc3)[C@]3(CC[C@@](C)([C@H]4CC[C@](O)(CC)[C@H](C)O4)O3)O2)[C@H](C)C[C@@H]1C [1e]	10.9 ± 2.6 µM	5.1 ± 0.8 µM	10.4 ± 2.3 µM		4 ± 0.7 µM			
CCC1(C2OC(C3OC(O)(COC(=O)CCC(=O)OCCC[P+](c4ccccc4)(c4ccccc4)c4ccccc4)C(C)CC3C)CC2C)CCC(C2(C)CCC3(CC(O)C(C)C(C(C)C(OC)C(C)C(=O)OCCC[P+](c4ccccc4)(c4ccccc4)c4ccccc4)O3)O2)O1 (centres unmarked) [2f]	2.3 ± 0.4 µM	1.3 ± 0.2 µM	1.7 ± 0.3 µM		1.4 ± 0.1 µM	22.5%		
CC[C@@H](C(=O)[C@@H](C)[C@@H](O)[C@H](C)[C@@H]1O[C@@H]([C@@H](CC)C(=O)O)CC[C@@H]1C)[C@H]1O[C@]2(C=C[C@H](n3cc(COC(=O)CCC[P+](c4ccccc4)(c4ccccc4)c4ccccc4)nn3)[C@]3(CC[C@@](C)([C@H]4CC[C@](O)(CC)[C@H](C)O4)O3)O2)[C@H](C)C[C@@H]1C [1b]	16.8 ± 4.4 µM	3.9 ± 0.8 µM	8.8 ± 2.4 µM		5.5 ± 1.4 µM			
CCC1(C2OC(C3OC(O)(Cn4cc(C[P+](c5ccccc5)(c5ccccc5)c5ccccc5)nn4)C(C)CC3C)CC2C)CCC(C2(C)CCC3(CC(O)C(C)C(C(C)C(OC)C(C)C(=O)O)O3)O2)O1 (centres unmarked) [2a]	0.7 ± 0.2 µM	0.3 ± 0.02 µM	0.5 ± 0.1 µM		0.4 ± 0.1 µM			
CC[C@@H](C(=O)[C@@H](C)[C@@H](O)[C@H](C)[C@@H]1O[C@@H]([C@@H](CC)C(=O)O)CC[C@@H]1C)[C@H]1O[C@]2(C=C[C@@H](O)[C@]3(CC[C@@](C)([C@H]4CC[C@](O)(CC)[C@H](C)O4)O3)O2)[C@H](C)C[C@@H]1C [SAL, Salinomycin, reference compound]	1.5 ± 0.06 µM	1.6 ± 0.1 µM	1.1 ± 0.04 µM		2.7 ± 0.1 µM			
CC[C@@]1([C@@H]2O[C@@H]([C@H]3O[C@@](O)(CO)[C@H](C)C[C@@H]3C)C[C@@H]2C)CC[C@H]([C@]2(C)CC[C@]3(C[C@H](O)[C@@H](C)[C@@H]([C@@H](C)[C@@H](OC)[C@H](C)C(=O)O)O3)O2)O1 [MON, Monensin A]							selectively inhibited the growth of prostate cancer cells at nanomolar concentrations	
CC[C@@H](C(=O)[C@@H](C)[C@@H](O)[C@H](C)[C@@H]1O[C@@H]([C@@H](CC)C(=O)O)CC[C@@H]1C)[C@H]1O[C@]2(C=C[C@H](n3cc(C[P+](c4ccccc4)(c4ccccc4)c4ccccc4)nn3)[C@]3(CC[C@@](C)([C@H]4CC[C@](O)(CC)[C@H](C)O4)O3)O2)[C@H](C)C[C@@H]1C [1a]	16.4 ± 2.4 µM	2.9 ± 0.5 µM	9 ± 3.6 µM		1.2 ± 0.2 µM			
CCC1(C2OC(C3OC(O)(CNC(=O)CCC[P+](c4ccccc4)(c4ccccc4)c4ccccc4)C(C)CC3C)CC2C)CCC(C2(C)CCC3(CC(O)C(C)C(C(C)C(OC)C(C)C(=O)O)O3)O2)O1 (centres unmarked) [2e]	28.1 ± 2.1 µM	> 100 µM	46.7 ± 3.1 µM		> 100 µM			
CCC1(C2OC(C3OC(O)(Cn4cc(CNC(=O)CCC[P+](c5ccccc5)(c5ccccc5)c5ccccc5)nn4)C(C)CC3C)CC2C)CCC(C2(C)CCC3(CC(O)C(C)C(C(C)C(OC)C(C)C(=O)O)O3)O2)O1 (centres unmarked) [2c]	10.6 ± 0.4 µM	14.9 ± 3.4 µM	18.3 ± 0.4 µM		14.5 ± 2.1 µM			
CC[C@@H](C(=O)[C@@H](C)[C@@H](O)[C@H](C)[C@@H]1O[C@@H]([C@@H](CC)C(=O)O)CC[C@@H]1C)[C@H]1O[C@]2(C=C[C@H](n3cc(CNC(=O)CCC[P+](c4ccccc4)(c4ccccc4)c4ccccc4)nn3)[C@]3(CC[C@@](C)([C@H]4CC[C@](O)(CC)[C@H](C)O4)O3)O2)[C@H](C)C[C@@H]1C [1c]	14 ± 4.1 µM	15.6 ± 9.1 µM	9.8 ± 2 µM		12.9 ± 1.3 µM			
CCC1(C2OC(C3OC(O)(Cn4cc(COC(=O)CCC[P+](c5ccccc5)(c5ccccc5)c5ccccc5)nn4)C(C)CC3C)CC2C)CCC(C2(C)CCC3(CC(O)C(C)C(C(C)C(OC)C(C)C(=O)O)O3)O2)O1 (centres unmarked) [2b]	1.5 ± 0.2 µM	3.4 ± 1.1 µM	0.8 ± 0.04 µM		0.7 ± 0.3 µM			
CCCC[P+](CCCC)(CCCC)Cc1cn(CC2(O)OC(C3CC(C)C(C4(CC)CCC(C5(C)CCC6(CC(O)C(C)C(C(C)C(OC)C(C)C(=O)O)O6)O5)O4)O3)C(C)CC2C)nn1 (centres unmarked) [2d]	4.3 ± 0.01 µM	1.4 ± 0.4 µM	3.5 ± 0.1 µM		3.1 ± 0.6 µM			
CC[C@@H](C(=O)[C@@H](C)[C@@H](O)[C@H](C)[C@@H]1O[C@@H]([C@@H](CC)C(=O)OCCCCCC[P+](c2ccccc2)(c2ccccc2)c2ccccc2)CC[C@@H]1C)[C@H]1O[C@]2(C=C[C@@H](OC(=O)CCC(=O)OCCCCCC[P+](c3ccccc3)(c3ccccc3)c3ccccc3)[C@]3(CC[C@@](C)([C@H]4CC[C@](O)(CC)[C@H](C)O4)O3)O2)[C@H](C)C[C@@H]1C [1f]				−10 pA				61.6%
